Results on three compounds are retold here after publication PMC7473970, “Preformulation Studies of a Stable PTEN-PDZ Lipopeptide Able to Cross an In Vitro Blood-Brain-Barrier Model as a Potential Therapy for Alzheimer’s Disease” (Pharmaceutical Research, 2020).

A short description of data set [1]: In vitro stability in 50% v/v mouse plasma. It counts as in vitro ADME. As to conditions: 37°C, HPLC-UV 220 nm, one phase decay, least square fit, n = 3; for k: 50% v/v CD-1 mouse plasma (K3 EDTA) in PBS, 120 μL of 5 mM DMSO stock in 1080 μL, 100 rpm, 0-1440 min. As for the experimental part:
CD-1 male mice (7 weeks old: Charles River Laboratories) were sacrificed with CO2, and blood was collected in K3E EDTA spray-coated vacutainers and kept on ice prior to centrifugation at 3000 rpm for 15 min at 4°C (Heraeus Multifuge 3sf). Mouse plasma samples were stored at −80°C before use in stability studies. Study was approved by the University of Portsmouth Animal Welfare and Ethical Review Body (UoP AWERB body, 817).
For testing, the plasma was diluted (1:1) in PBS without phenol and pre-warmed to 37°C. Peptides stocks (5 mM in DMSO) were prepared and maintained at −20°C before performing the stability studies. Peptide stock solutions (120 μL) were added to pre-warmed diluted plasma (50% v/v, 1080 μL) and maintained at 37°C with agitation (100 rpm: Grant Aqua Waterbath, Royston, UK). Samples (80 μL) were taken at 0, 3, 6,9, 15, 30, 45, 60, 90, 120, 180, 240, 360 and 1440 min, diluted with ice-cold acetonitrile (80 μL), vortexed and left in −80°C at least overnight to favor maximal protein precipitation. The samples were then vortexed again for 15 min (SciQuip microplate shaker, Shropshire, UK), centrifuged in a Thermo Sci Jouan B4i Centrifuge (Hemel Hampstead, UK) and the supernatant was transferred to an HPLC vial (200 μL).
(§1) The samples were analyzed at 40°C on a Phenomenex Lichrosorb RP8 C8 column (4.0 mm × 250 mm, 5 μm), using the gradient elution method on an Agilent HPLC system (Agilent Technologies, Cheadle, UK) equipped with an 1100 series degasser, quaternary pump, autosampler, and column heater, and attached to an Agilent 1200 series PDA detector and a 1250 series fluorescent detector. The flow rate was set at 1.2 mL min^-1, and the injection volume was set at 40 μL, while detection was performed at 220 nm. The mobile phase was a mixture of mobile phase A (0.1% TFA in water) and phase B (0.08% TFA in acetonitrile), and in the first 5 min, the mobile phase was an 8:2 ratio of A:B (v/v) and from 5 to 15 min the percentage of B was raised from 8:2 to 1:9 (v/v). Linear calibration curves were constructed for both peptides between 0.1–100 μg.mL^−1. The retention time for the human Lau–PTEN-PDZ, mouse Lau–PTEN-PDZ, human Myr–PTEN-PDZ, and mouse Myr–PTEN-PDZ was 12.03, 11.60, 13.68, and 13.91, respectively.

Data set [2] in a line: In vitro stability in simulated intestinal fluid (mouse intestinal wash). It is filed as in vitro ADME. To be noted: 120 μL of 5 mM DMSO stock in 1080 μL, 37°C, 0-1440 min, HPLC-UV 220 nm, n = 3; for k: Simulated intestinal fluid = undiluted pooled CD-1 mouse duodenum/ileum wash in 50 mM phosphate buffer pH 6.63, 100 rpm, one phase decay, least square fit; for t1/2 (h) / t1/2 (min): Simulated intestinal fluid = undiluted pooled CD-1 mouse duodenum/ileum wash, phosphate buffer pH 6.63, one phase decay fit. How it is done: as §1
The duodenum and ileum were excised from 10 non-fasted CD-1 male mice (7 weeks-old: Charles River Laboratories) that were sacrificed with CO2. Each duodenum and ileum were washed with 6 ml of phosphate buffer (50 mM, pH 6.63), and all the washes were pooled prior to centrifugation at 4000 rpm for 15 min at 4°C (Heraeus Multifuge 3sf) ([7],[15]). The intestinal wash was removed and frozen at −80°C prior to using it in stability studies without further dilution. Peptides stocks (5 mM in DMSO) were prepared and maintained at −20°C prior to performing stability studies. A stock peptide solution (120 μL) was added to the diluted pre-warmed (37°C) intestinal wash (1080 μL) with agitation at 100 rpm (Grant Aqua Waterbath), and samples (80 μL) were taken at 0, 15, 30, 45, 60, 90, 120, 180, 240, 360 and 1440 min, and diluted with ice-cold glacial acetic acid (17.5 M): acetonitrile (5:95 v/v, 80 μL) to quench the enzyme activity. Samples were vortexed and left in −80°C at least overnight to maximize protein precipitation, and after vortexing again for 15 min and centrifuging, the supernatant was analyzed by HPLC as described above.

A short description of data set [3]: Permeability across in vitro 2D human blood-brain barrier model. It counts as in vitro ADME.
Data set [4] can be described thus: In vitro stability in 50% liver homogenate. It counts as in vitro ADME, mouse. As to conditions: 37°C; for k: 50% w/v CD-1 mouse liver homogenate in PBS pH 7.4, 120 μL of 5 mM DMSO stock in 1080 μL, 100 rpm, 0-1440 min; for k / t1/2 (h) / t1/2 (min): HPLC-UV 220 nm, one phase decay, least square fit, n = 3; for t1/2 (h) / t1/2 (min): 50% w/v mouse liver homogenate in PBS pH 7.4. As for the experimental part: as §1
(§2) The liver and brain of the mice were excised from […] CD-1 male mice (7 weeks-old: Charles River Laboratories) sacrificed with CO2, and the tissue was frozen immediately with liquid nitrogen prior to storage at −80°C. The liver and brain tissue were thawed and homogenized on ice in PBS (2 mL/g of tissue) using a glass 3 mL tissue homogenizer (20 strokes per sample), and the liver and brain homogenates were centrifuged (Heraeus Multifuge 3sf, Fisher Scientific, Basingstoke, UK) at 4300 g for 60 min at 4°C and at 3000 g for 20 min at 4°C, respectively. The supernatant was stored at −80°C, diluted 1:1 (v/v) with PBS (1x, pH 7.4), and used in stability studies. Peptides stocks (5 mM in DMSO) were prepared and maintained at −20°C prior to performing stability studies. These stock solutions (120 μL) were added to the diluted pre-warmed (37°C) liver or brain homogenate (50% v/v, 1080 μL) with agitation (100 rpm: Grant Aqua Waterbath), and samples (80 μL) were taken at 0, 5, 10, 15, 30, 45, 60, 90, 120, 180, 240, 360 and 1440 min, and diluted with ice-cold acetonitrile (80 μL). Samples were vortexed and left at −80°C at least overnight to allow for maximum protein precipitation, the samples were vortexed again for 15 min, centrifuged and the supernatant was analyzed by HPLC as described above.
(§3) The total protein concentration in the homogenates was determined using the Bradford protein assay ([7],[15]) and BSA as a standard. Ten stock solutions of BSA were prepared in PBS between 0.1–1 mg mL^−1, and 40 μL of each of the diluted stocks were added to 1.2 mL of Bradford reagent and incubated at room temperature for 5 min. The absorbance was recorded at 595 nm using a Multiskan GO spectrophotometer and the SkanIt software (Thermo Scientific, Paisley, UK). A linear calibration curve was obtained in this range that was used to extrapolate the protein content of 1:100 v/v stock solutions of 50% mouse plasma, liver, and brain homogenates diluted in PBS.

Data set [5] can be described thus: In vitro stability in 50% brain homogenate. As to conditions: 37°C, HPLC-UV 220 nm, one phase decay, least square fit, n = 3; for k: 50% w/v CD-1 mouse brain homogenate in PBS pH 7.4, 120 μL of 5 mM DMSO stock in 1080 μL, 100 rpm, 0-1440 min; for t1/2 (h) / t1/2 (min): 50% w/v mouse brain homogenate in PBS pH 7.4. It is filed as in vitro ADME, mouse. As for the experimental part: as §1, §2, §3

[6] abbreviates: read-out: Papp0-4h, Experiment 2.
Setting [7] is: 50% w/v mouse liver homogenate, two phase decay fit, fast phase.
The mark [8] stands for this setting: 50% w/v mouse liver homogenate, two phase decay fit, slow phase.

Read-outs that look alike come from different tables or passages of the source. Residues, ends and D or L forms follow the SMILES beside them.

For the compound `CCCCCCCCCCCC(=O)N[C@@H](CCC(N)=O)C(=O)N[C@@H](Cc1c[nH]cn1)C(=O)N[C@H](C(=O)N[C@@H](CCC(N)=O)C(=O)N[C@H](C(=O)N[C@H](C(=O)N[C@@H](CCCCN)C(=O)N[C@H](C(=O)O)C(C)C)[C@@H](C)O)[C@@H](C)CC)[C@@H](C)O` [Human Lau-PTEN-PDZ] (HELM PEPTIDE1{[CCCCCCCCCCCC(=O)[*:2]].Q.H.T.Q.I.T.K.V}$$$$V2.0), the k in data set [1] was 4.60 h⁻¹; in data set [2], 0.23 h⁻¹; in data set [4], 1.15 h⁻¹; in data set [5], 1.90 h⁻¹. The “t1/2 (h)” value is recorded as 0.15 h in data set [1] (50% v/v mouse plasma in PBS), 2.96 h in data set [2], 0.60 h in data set [4] and 0.36 h in data set [5]. Also, the “t1/2 (min)” value in data set [1] (50% v/v mouse plasma in PBS) is 9.05 min; in data set [2], 177.96 min; in data set [4], 36.28 min; in data set [5], 21.87 min. In addition, in data set [3] (setting [6]), the Papp A→B at 100 μM was determined as 5.57 ± 0.29 ×10⁻⁶ cm/s.

`CCCCCCCCCCCCCC(=O)N[C@@H](CCC(N)=O)C(=O)N[C@@H](Cc1c[nH]cn1)C(=O)N[C@H](C(=O)N[C@@H](CCC(N)=O)C(=O)N[C@H](C(=O)N[C@H](C(=O)N[C@@H](CCCCN)C(=O)N[C@H](C(=O)O)C(C)C)[C@@H](C)O)[C@@H](C)CC)[C@@H](C)O` [Human Myr-PTEN-PDZ] (HELM PEPTIDE1{[CCCCCCCCCCCCCC(=O)[*:2]].Q.H.T.Q.I.T.K.V}$$$$V2.0) registered a k in data set [1] of 6.17 h⁻¹. Also, in data set [1] (50% v/v mouse plasma in PBS), the “t1/2 (h)” value turned out to be 0.11 h and the “t1/2 (min)” value turned out to be 6.74 min. Moreover, the k in data set [2] was 0.25 h⁻¹. For the same compound, the Papp A→B at 100 μM in data set [3] (setting [6]) stood at 3.77 ± 0.39 ×10⁻⁶ cm/s. Further, in data set [4], the k was determined as 0.04 h⁻¹, the “t1/2 (h)” value came out at 18.5 h and the “t1/2 (min)” value turned out to be 1110 min. Further, in data set [4] (setting [7]), the “k (fast)” value came out at 3.05 h⁻¹, the “t1/2 (h) fast” value is 0.23 h and the “t1/2 (min) fast” value is 13.63 min. Also, in data set [4] (setting [8]), the “k (slow)” value is 0.0005 h⁻¹, the “t1/2 (h) slow” value was 1510 h and the “t1/2 (min) slow” value is on record as 90,600 min. Further, in data set [5], the k came out at 4.20 h⁻¹, the “t1/2 (h)” value is reported as 0.16 h and the “t1/2 (min)” value was determined as 9.89 min.

On to `CCCCCCCCCCCC(=O)N[C@@H](CCC(N)=O)C(=O)N[C@@H](Cc1c[nH]cn1)C(=O)N[C@@H](CO)C(=O)N[C@@H](CCC(N)=O)C(=O)N[C@H](C(=O)N[C@H](C(=O)N[C@@H](CCCCN)C(=O)N[C@H](C(=O)O)C(C)C)[C@@H](C)O)[C@@H](C)CC` [Mouse Lau-PTEN-PDZ] (HELM PEPTIDE1{[CCCCCCCCCCCC(=O)[*:2]].Q.H.S.Q.I.T.K.V}$$$$V2.0), for which the k in data set [1] is 0.12 h⁻¹; in data set [2], 2.34 h⁻¹; in data set [4], 0.73 h⁻¹; in data set [5], 3.48 h⁻¹. In addition, the “t1/2 (h)” value is recorded as 5.86 h in data set [1] (50% v/v mouse plasma in PBS), 0.30 h in data set [2], 0.95 h in data set [4] and 0.20 h in data set [5]. For the same compound, the “t1/2 (min)” value in data set [1] (50% v/v mouse plasma in PBS) is given as 351.84 min; in data set [2], 17.77 min; in data set [4] it was 57.14 min; in data set [5], 11.95 min. In addition, the half-life at 0.5 mM in data set [1] (male, CD-1, 50% v/v mouse plasma (K3 EDTA) diluted in PBS, 50% v/v mouse plasma in PBS) is 354 min. Moreover, in data set [3] (read-out: Papp0-4h, Experiment 1), the Papp A→B at 100 μM was 6.28 ± 1.85 ×10⁻⁶ cm/s.
